Legend:
BMX = BMX (Homo sapiens, UniProt P51813); assay: KINOMEscan: BMX; format: binding; conditions: 1000 nM, read-out: Percent Control
GRK4 = GRK4 (Homo sapiens, UniProt P32298); assay: KINOMEscan: GRK4; format: binding; conditions: 1000 nM, read-out: Percent Control
WNK2 = WNK2 (Homo sapiens, UniProt Q9Y3S1); assay: KINOMEscan: WNK2; format: binding; conditions: 100 nM, read-out: Percent Control
[1] = test system: B-cells isolated from patients with treatment-naïve CLL; assay: Limiting-cell RNA sequencing (lcRNAseq); format: cell-based, human
Experimental: CLL cells isolated from patients were sorted for CD5^+/CD19^+ into lysis buffer. Libraries were prepared and sequenced as previously described.
P-TEFb’s role in regulating transcription through POLII CTD phosphorylation is a canonical function of this complex. To interrogate the transcriptional changes associated with VIP152 treatment, we treated B-cells, isolated from four patients with treatment-naïve CLL, with 1 µM VIP152 or DMSO for two hours followed by fluorescence-assisted cell sorting for 500 live (Sytox^−), CD45^+/CD5^+/CD19^+ cells (Fig. 3A). Our group has previously defined an analysis pipeline, named CLEAR, which identifies evenly distributed reads for differentially expressed gene (DEG) analysis. […] When we looked at the expression of these differentially abundant genes via an unsupervised clustered heatmap, we noted that there was high concordance between the patient samples with clustering dependent on treatment group (Fig. 3C). The treatment did induce decreased transcript abundance of genes previously reported to be controlled by CDK9 activity, namely JUNB, BTG1, and MCL1 [45, 46]. Downregulation of the anti-apoptotic MCL1 (LFC: −1.231056 & p-value = 0.02) likely contributes to the susceptibility of primary CLL cells to apoptosis (Fig. 2F, G). […] It has been established that AU-rich element (ARE) mRNA molecules are under tight temporal regulation and control a variety of cellular processes. Moreover, the relationship between P-TEFb mediated transcription and ARE-bearing mRNA has previously been described. […] We appreciate from our limiting-cell RNA sequencing experiments that the loss of tristetrapolin (ZFP36) transcripts (LFC: −4.02; adjusted p-value: 7.97*10^−40) and the upregulation of ribosomal transcripts, likely correspond to a possible compensatory mechanism by which these cells attempt to improve translational output and maximize transcript maintenance in response to VIP152-induced transcriptional shutdown. […] We looked at transcripts which had been shown by photoactivatable ribonucleoside cross-linking and immunoprecipitation (PAR-CLIP) to interact with ZFP36 [50]. […] Additionally, we chose to look at BCL2 transcript stability as ZFP36L1 has been shown in B cell lymphoma to negatively regulate BCL2 transcript stability. We performed an mRNA stability study on patient samples treated with VIP152 with Actinomycin-D and observed an increase in the half-lives of each of these transcripts including BCL2 (Fig. 3H–M).

[2] = target: Nicotinic Acetylcholine α1, Bungarotoxin (Homo sapiens, UniProt P02708+P07510+Q07001); assay: Eurofins Diversity Panel; format: binding; conditions: read-out: % Inh.
Nicotinic Acetylcholine α1, Bungarotoxin, sequence (Q07001 22-517): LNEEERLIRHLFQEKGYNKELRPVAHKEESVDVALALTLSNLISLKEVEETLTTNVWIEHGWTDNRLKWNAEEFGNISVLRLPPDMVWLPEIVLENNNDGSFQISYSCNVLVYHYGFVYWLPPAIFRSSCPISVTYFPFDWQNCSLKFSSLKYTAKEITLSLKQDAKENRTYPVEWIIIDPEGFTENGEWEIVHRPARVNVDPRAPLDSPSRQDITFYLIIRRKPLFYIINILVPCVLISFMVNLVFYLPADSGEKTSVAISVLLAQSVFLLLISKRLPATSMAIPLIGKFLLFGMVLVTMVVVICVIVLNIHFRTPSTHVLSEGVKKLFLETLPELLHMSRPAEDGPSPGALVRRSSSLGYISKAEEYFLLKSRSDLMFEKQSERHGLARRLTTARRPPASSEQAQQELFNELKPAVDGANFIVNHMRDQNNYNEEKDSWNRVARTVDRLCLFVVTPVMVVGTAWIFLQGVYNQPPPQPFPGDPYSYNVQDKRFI
Nicotinic Acetylcholine α1, Bungarotoxin, sequence (P07510 23-517): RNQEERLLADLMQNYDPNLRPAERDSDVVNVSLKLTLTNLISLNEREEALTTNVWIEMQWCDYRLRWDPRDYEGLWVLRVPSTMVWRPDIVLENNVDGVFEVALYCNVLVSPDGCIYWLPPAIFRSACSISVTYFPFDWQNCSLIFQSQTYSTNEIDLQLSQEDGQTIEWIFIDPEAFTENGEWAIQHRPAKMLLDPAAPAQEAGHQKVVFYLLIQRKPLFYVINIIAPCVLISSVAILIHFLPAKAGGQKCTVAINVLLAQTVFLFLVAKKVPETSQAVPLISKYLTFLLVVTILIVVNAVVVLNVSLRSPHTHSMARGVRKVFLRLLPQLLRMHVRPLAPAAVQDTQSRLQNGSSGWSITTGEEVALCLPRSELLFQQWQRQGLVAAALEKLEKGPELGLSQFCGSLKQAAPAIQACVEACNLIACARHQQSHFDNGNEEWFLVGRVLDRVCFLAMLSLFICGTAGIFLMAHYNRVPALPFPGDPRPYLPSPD
Nicotinic Acetylcholine α1, Bungarotoxin, sequence (P11230 24-501, further chain): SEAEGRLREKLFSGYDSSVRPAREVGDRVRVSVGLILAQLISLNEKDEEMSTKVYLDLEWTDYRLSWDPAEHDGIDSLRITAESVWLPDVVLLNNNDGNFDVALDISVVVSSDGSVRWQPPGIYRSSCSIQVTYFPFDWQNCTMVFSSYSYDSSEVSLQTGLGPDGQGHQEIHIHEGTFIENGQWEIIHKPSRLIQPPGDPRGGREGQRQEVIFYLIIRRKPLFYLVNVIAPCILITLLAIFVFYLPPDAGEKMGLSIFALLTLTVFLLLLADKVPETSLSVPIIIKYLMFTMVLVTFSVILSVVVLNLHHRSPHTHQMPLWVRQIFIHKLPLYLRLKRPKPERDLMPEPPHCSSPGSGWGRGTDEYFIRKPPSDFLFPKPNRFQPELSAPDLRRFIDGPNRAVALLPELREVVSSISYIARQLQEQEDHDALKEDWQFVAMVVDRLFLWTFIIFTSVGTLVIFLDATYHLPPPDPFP
Nicotinic Acetylcholine α1, Bungarotoxin, sequence (P02708 21-457): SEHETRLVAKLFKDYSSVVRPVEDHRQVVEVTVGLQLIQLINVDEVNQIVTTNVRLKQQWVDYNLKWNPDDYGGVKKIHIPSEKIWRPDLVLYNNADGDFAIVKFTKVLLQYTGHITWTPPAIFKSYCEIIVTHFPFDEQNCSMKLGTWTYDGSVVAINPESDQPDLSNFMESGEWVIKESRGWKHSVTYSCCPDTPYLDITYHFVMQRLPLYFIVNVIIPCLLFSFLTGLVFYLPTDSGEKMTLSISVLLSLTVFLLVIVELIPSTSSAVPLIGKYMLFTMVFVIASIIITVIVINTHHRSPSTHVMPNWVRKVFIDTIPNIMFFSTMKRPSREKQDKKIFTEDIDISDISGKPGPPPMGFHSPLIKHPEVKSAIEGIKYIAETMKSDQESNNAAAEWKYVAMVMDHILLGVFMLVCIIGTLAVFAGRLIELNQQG

EPHA5 = EPHA5 (Homo sapiens, UniProt P54756); assay: KINOMEscan: EPHA5; format: binding; conditions: 1000 nM, read-out: Percent Control
EPHA5, sequence (P54756 25-1037): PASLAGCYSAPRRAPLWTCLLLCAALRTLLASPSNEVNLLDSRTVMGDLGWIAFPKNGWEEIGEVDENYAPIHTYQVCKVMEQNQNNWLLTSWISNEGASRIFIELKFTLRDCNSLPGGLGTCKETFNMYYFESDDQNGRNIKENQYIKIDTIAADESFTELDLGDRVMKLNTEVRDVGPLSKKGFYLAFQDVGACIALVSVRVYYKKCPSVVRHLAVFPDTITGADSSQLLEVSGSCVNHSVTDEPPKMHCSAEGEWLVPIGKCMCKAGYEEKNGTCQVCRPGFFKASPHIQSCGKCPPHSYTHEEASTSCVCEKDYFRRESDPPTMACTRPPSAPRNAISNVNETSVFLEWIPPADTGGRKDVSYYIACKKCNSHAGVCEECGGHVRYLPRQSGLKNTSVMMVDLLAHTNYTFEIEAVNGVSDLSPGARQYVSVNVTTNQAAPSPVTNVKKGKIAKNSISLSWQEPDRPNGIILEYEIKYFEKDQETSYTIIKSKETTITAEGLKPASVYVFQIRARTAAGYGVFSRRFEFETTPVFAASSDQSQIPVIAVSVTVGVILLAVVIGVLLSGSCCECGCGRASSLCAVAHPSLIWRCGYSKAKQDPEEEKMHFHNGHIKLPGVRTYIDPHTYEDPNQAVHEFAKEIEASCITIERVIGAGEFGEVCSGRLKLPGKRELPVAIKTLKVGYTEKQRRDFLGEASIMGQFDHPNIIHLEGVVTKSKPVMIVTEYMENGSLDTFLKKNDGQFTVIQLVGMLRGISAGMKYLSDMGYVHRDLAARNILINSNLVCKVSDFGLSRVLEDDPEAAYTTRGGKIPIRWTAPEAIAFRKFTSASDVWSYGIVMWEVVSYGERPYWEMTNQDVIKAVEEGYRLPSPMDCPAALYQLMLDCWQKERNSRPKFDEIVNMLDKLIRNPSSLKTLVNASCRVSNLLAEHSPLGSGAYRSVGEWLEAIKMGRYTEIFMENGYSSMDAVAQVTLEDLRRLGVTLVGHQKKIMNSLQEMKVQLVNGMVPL

ROS1 = ROS1 (Homo sapiens, UniProt P08922); assay: KINOMEscan: ROS1; format: binding; conditions: 100 nM, read-out: Percent Control
[3] = target: Serotonin (5-Hydroxytryptamine) 5-HT1A) (Homo sapiens, UniProt P08908); assay: Eurofins Diversity Panel; format: binding; conditions: hum, Conc. 10 μM
EGFR(L747-T751del,Sins) = EGFR(L747-T751del,Sins) (Homo sapiens, UniProt P00533, DEL747-750/T751S); assay: biochemical; set-up: DiscoverX KINOMEscan kinase panel, per cent of control (100 = no effect), single concentrations; conditions: per cent of control, KINOMEscan; read-out: Percent Control
Experimental: (§1) The structure and synthesis of VIP152 were recently described by Lücking et al.. (Fig. 1A); however, the selectivity of the molecule in cellular systems has yet to be explored. […] We also performed this experiment at 1000 nM, where CDK9 was inhibited at 99%. […] We found a strong concordance between our data and those of Lücking when comparing the most inhibited kinases. Potential off-target effects of VIP152 were next tested in vitro at a concentration of 10 µM for off-target activity against a broad range of receptors, transporters, ion channels, and enzymes (n = 138) using the Eurofins Diversity Panel. […] A Chemical structure of VIP152.

FLT3(ITD,F691L) = FLT3(ITD,F691L) (Homo sapiens, UniProt P36888, F691L/ITD); assay: biochemical; set-up: DiscoverX KINOMEscan kinase panel, per cent of control (100 = no effect), single concentrations; conditions: per cent of control, KINOMEscan; read-out: Percent Control
Experimental: as §1

FLT3(ITD) = FLT3(ITD) (Homo sapiens, UniProt P36888, ITD); assay: biochemical; set-up: DiscoverX KINOMEscan kinase panel, per cent of control (100 = no effect), single concentrations; conditions: per cent of control, KINOMEscan; read-out: Percent Control
Experimental: as §1

[4] = target: EGFR(L747-E749del, A750P) (Homo sapiens, UniProt P00533, A750P/DEL747-749); assay: biochemical; set-up: DiscoverX KINOMEscan kinase panel, per cent of control (100 = no effect), single concentrations; conditions: per cent of control, KINOMEscan; read-out: Percent Control
Experimental: as §1

[5] = target: EGFR(L747-S752del, P753S) (Homo sapiens, UniProt P00533, DEL747-752/P753S); assay: biochemical; set-up: DiscoverX KINOMEscan kinase panel, per cent of control (100 = no effect), single concentrations; conditions: per cent of control, KINOMEscan; read-out: Percent Control
EGFR(L747-S752del, P753S), sequence (P00533 with tags, fused parts or gaps DEL747-752/P753S): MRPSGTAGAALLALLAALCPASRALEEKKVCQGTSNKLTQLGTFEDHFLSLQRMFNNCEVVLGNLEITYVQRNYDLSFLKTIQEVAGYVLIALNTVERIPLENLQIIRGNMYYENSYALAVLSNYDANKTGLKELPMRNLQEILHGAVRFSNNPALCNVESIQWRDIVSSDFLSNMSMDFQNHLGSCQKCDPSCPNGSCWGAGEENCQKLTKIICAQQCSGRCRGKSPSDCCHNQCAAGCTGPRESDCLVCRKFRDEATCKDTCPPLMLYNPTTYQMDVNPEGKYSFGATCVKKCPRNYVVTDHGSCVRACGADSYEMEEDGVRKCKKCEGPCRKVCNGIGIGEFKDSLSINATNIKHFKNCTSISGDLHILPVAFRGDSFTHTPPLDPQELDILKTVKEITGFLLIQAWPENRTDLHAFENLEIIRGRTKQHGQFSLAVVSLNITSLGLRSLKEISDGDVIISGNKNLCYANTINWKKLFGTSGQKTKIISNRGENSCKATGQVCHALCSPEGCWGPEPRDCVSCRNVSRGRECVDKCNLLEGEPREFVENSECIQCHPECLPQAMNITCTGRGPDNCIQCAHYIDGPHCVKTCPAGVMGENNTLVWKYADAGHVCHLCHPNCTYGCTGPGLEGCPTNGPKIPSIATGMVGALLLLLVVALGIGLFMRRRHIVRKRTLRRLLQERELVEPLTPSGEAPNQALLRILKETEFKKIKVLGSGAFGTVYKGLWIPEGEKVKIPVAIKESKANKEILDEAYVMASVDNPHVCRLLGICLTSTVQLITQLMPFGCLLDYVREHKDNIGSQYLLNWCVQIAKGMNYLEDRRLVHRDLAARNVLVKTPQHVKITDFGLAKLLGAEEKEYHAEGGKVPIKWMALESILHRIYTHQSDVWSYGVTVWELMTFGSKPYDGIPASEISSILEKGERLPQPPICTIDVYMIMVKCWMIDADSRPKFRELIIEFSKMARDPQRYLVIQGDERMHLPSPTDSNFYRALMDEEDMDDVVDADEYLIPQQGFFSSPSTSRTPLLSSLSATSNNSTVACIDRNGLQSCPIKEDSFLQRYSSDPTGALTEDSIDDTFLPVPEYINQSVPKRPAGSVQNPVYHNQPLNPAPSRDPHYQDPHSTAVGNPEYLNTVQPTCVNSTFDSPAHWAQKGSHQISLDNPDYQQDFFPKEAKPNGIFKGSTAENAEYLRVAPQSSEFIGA
Experimental: as §1

FLT3(ITD,D835V) = FLT3(ITD,D835V) (Homo sapiens, UniProt P36888, D835V/ITD); assay: biochemical; set-up: DiscoverX KINOMEscan kinase panel, per cent of control (100 = no effect), single concentrations; conditions: per cent of control, KINOMEscan; read-out: Percent Control
Experimental: as §1

Adrenergic α1A = Adrenergic α1A (Rattus norvegicus, UniProt P43140); assay: Eurofins Diversity Panel; format: binding; conditions: Conc. 10 μM
KIT(A829P) = KIT(A829P) (Homo sapiens, UniProt P10721, A829P); assay: KINOMEscan: KIT(A829P); format: binding; conditions: 1000 nM, read-out: Percent Control
KIT(A829P), sequence (P10721 26-976 A829P): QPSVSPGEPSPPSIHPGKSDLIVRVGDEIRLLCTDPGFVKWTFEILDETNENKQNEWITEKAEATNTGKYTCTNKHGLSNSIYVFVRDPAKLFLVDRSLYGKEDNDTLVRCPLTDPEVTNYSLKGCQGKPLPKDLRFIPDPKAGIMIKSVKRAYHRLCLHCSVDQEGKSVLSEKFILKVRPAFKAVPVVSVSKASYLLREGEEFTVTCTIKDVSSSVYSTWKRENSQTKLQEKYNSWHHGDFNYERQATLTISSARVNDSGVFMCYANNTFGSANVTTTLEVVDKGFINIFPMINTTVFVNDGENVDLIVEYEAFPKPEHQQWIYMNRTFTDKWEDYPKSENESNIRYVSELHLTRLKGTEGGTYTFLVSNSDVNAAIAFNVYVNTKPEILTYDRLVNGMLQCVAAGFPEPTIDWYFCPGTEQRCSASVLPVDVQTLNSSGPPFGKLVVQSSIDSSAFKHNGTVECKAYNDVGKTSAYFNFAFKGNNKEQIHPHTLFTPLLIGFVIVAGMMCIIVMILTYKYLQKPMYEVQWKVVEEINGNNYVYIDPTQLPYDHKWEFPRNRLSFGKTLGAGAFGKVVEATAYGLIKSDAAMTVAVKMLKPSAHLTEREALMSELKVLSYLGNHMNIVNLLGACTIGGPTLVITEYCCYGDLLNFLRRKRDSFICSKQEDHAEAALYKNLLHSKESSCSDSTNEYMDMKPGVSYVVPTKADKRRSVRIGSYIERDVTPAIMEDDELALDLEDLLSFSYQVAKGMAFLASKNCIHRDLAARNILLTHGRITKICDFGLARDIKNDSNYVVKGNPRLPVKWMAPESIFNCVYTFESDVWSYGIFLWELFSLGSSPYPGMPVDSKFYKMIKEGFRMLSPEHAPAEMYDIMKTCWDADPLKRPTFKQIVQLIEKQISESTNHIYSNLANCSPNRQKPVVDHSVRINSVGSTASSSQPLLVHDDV

EGFR(G719S) = EGFR(G719S) (Homo sapiens, UniProt P00533, G719S); assay: KINOMEscan: EGFR(G719S); format: binding; conditions: 1000 nM, read-out: Percent Control

## COc1cc(F)ccc1-c1cc(Nc2cc(CS(C)(=N)=O)ccn2)ncc1F (centres unmarked) [VIP152]
BMX
  remaining binding at 1 µM: 3.8%
GRK4
  remaining binding at 1 µM: 26%
WNK2
  remaining binding at 0.1 µM: 100%
[1]; 1 µM, two hours vs DMSO
  MCL1 transcript LFC: −1.231
  ZFP36 transcript LFC: −4.02
[1]; VIP152 2hr vs DMSO 2hr
  log2FoldChange A1BG: 0.4323
  log2FoldChange A1BG-AS1: 0.777
  log2FoldChange AAAS: 0.1502
  log2FoldChange AAGAB: 0.6327
  log2FoldChange AAMDC: 0.4489
[2]
  inhibition at 10 µM: 3%
EPHA5
  remaining binding at 1 µM: 88%
ROS1
  remaining binding at 0.1 µM: 100%
[3]
  inhibition at 10 µM: 13%
EGFR(L747-T751del,Sins)
  remaining binding at 0.1 µM: 100%
FLT3(ITD,F691L)
  remaining binding at 0.1 µM: 99%
FLT3(ITD)
  remaining binding at 0.1 µM: 100%
[4]
  remaining binding at 0.1 µM: 100%
[5]
  remaining binding at 0.1 µM: 93%
FLT3(ITD,D835V)
  remaining binding at 0.1 µM: 100%
Adrenergic α1A
  inhibition at 10 µM: 34%
KIT(A829P)
  remaining binding at 1 µM: 100%
EGFR(G719S)
  remaining binding at 1 µM: 86%

— article PMC9898036, “VIP152 is a selective CDK9 inhibitor with pre-clinical in vitro and in vivo efficacy in chronic lymphocytic leukemia” (Leukemia, 2022)
